Source: patent publication US8394969B2, “Cyclic benzimidazole derivatives useful as anti-diabetic agents” (Merck Sharp & Dohme Corp., priority 2008, dated 2013)
Structures can show the parent of a compound that is named as a salt.

Each compound was assayed against recombinant human AMPK complex 1 (containing α1β1γ1) (Homo sapiens, UniProt Q13131+Q9Y478) (assay: […] (in vitro AMPK activation assay)). Conditions: recombinant human AMPK complex 1 (α1β1γ1); basal activity subtracted; read-out: % Maximum AMP Activation of human AMPK Complex 1.
recombinant human AMPK complex 1 (containing α1β1γ1), sequence (Q13131 whole entry): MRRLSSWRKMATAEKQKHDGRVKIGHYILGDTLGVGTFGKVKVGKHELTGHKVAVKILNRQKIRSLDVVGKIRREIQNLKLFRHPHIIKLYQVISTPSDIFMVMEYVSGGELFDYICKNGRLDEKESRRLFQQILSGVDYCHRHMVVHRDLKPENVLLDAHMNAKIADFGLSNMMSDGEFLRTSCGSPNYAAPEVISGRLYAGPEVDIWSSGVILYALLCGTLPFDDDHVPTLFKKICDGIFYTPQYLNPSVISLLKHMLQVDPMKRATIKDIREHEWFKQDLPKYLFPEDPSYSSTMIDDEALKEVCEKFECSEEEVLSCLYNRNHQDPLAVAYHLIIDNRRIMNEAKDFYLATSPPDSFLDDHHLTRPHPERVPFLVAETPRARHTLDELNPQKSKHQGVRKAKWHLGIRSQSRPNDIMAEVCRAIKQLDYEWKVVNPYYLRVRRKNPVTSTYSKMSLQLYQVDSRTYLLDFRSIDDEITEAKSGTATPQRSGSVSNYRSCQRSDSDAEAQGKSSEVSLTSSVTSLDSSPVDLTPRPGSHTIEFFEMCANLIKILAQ
recombinant human AMPK complex 1 (containing α1β1γ1), sequence (Q9Y478 whole entry): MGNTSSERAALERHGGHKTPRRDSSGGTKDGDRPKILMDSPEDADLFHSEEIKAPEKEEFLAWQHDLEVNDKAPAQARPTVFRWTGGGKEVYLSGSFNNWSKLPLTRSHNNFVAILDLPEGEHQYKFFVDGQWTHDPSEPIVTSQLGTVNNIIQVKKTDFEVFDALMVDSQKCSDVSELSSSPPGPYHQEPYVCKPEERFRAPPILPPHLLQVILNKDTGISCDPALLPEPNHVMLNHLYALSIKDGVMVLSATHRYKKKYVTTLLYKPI
recombinant human AMPK complex 1 (containing α1β1γ1), sequence (P54619 whole entry partner): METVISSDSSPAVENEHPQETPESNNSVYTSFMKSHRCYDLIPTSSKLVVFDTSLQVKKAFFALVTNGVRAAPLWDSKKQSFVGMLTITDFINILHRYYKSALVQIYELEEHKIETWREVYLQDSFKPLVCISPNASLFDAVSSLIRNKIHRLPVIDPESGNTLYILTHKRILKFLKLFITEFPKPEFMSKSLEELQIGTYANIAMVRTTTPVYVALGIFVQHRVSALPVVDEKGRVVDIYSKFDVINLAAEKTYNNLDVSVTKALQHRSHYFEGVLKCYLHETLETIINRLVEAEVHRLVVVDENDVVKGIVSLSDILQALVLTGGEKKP
Type: biochemical
Method: Recombinant viruses were generated by cotransfection of AMPK/pBacPak9 clones with Baculogold baculovirus DNA (Pharmingen) in spodoptera frugiperda 21 cells according to the manufacturer's instructions. Each round of virus amplification was performed for 5 days in Grace's medium containing 10% serum. Virus that had been subjected to three rounds of amplification was used for all protein production procedures. To express the AMPK complex, sf21 cells were adapted to serum free medium (SF900 II, Invitrogen) by sequential dilution from serum containing stocks into SF900 II medium and maintained in shaker flasks at 90 rpm at 27° C. The recombinant AMPK enzyme complex was produced by triple infection, one recombinant virus for each of the subunits, in sf21 cells under serum free conditions. […] Cells were harvested by centrifugation at 10,000×g for 15 minutes after 72 hours of infection with viruses. The insect cell pellet from 2 liters of culture was resuspended in 50 ml lysis buffer (20 mM Tris-HCl, 50 mM NaCl, 50 mM NaF, 30 mM Na PPi, 0.25 M sucrose, 10 mM ZnCl2, 2 mM DTT, 0.4 mg/ml digitonin) and subjected to two cycles of freeze-thaw lysis in a dry-ice ethanol bath. Insoluble material was removed by centrifugation at 10,000×g and the supernatant was fractionated with use of polyethylene glycol (PEG).
The total in vitro AMPK activation assay volume is 50 μl in a 96-well plate. […] The reaction was initiated with addition of the enzyme. After 30-minute incubation at 30° C., the reaction was stopped by addition of 80 μl 1% H3PO4. Aliquots (100 μl) were transferred to 96-well MultiScreen plates (MAPHNOB50; Millipore Corp., Bedford, Mass., USA). The plate was washed three times with 1% H3PO4 followed by detection in a Top-count. The counts per minute from the basal activity (the reaction without activator) was subtracted from each well and the data were expressed as % maximum AMP activation followed by EC50 calculation.
Cc1ccc(Oc2nc3cc(-c4ccc5[nH]cc(C)c5c4)c(Cl)cc3[nH]2)cc1C(=O)O [Example 287, 5-[6-Chloro-5-(3-methyl-1H-indol-5-yl)-1H-benzoimidazol-2-yloxy]-2-methyl-benzoic acid] was tested, and the Emax was > 80%.
With COc1ccc2cc(-c3cc4nc(Oc5cc(C)c(C)c(C(=O)O)c5)[nH]c4cc3Cl)ccc2c1 [Example 310, 5-[6-Chloro-5-(6-methoxy-naphthalen-2-yl)-1H-benzoimidazol-2-yloxy]-2,3-dimethyl-benzoic acid] the Emax was > 80%.
In the case of Cc1ccc(Oc2nc3cc(-c4nc5ccccc5s4)c(Cl)cc3[nH]2)cc1C(=O)O [Example 354, 5-(5-Benzothiazol-2-yl-6-chloro-1H-benzoimidazol-2-yloxy)-2-methyl-benzoic acid], the Emax is reported as > 80%.
With Cc1nc(-c2ccc(C#Cc3cc4nc(Oc5ccc(C)c(C(=O)O)c5)[nH]c4cc3Cl)cc2)no1 [Example 80, 5-{6-Chloro-5-[4-(5-methyl-[1,2,4]oxadiazol-3-yl)-phenylethynyl]-1H-benzoicmidazol-2-yloxy}-2-methyl-benzoic acid] the Emax was > 80%.
O=C(O)c1cccc(Sc2nc3cc(-c4ccc(-c5ccccc5)cc4)c(Cl)cc3[nH]2)c1 [Example 64, 3-[(5-biphenyl-4-yl-6-chloro-1H-benizmidazol-2-yl)thio]benzoic acid] was tested, and the Emax was > 80%.
With COC(=O)c1cc(Oc2nc3cc(C#Cc4cccc(C)c4)c(Cl)cc3[nH]2)ccc1C [Example 100, 5-(6-Chloro-5-m-tolylethynyl-1H-benzoimidazol-2-yloxy)-2-methyl-benzoic acid methyl ester] the Emax was > 80%.
NC(=O)c1ccc(Oc2nc3cc(-c4ccc(-c5ccccc5)cc4)c(Cl)cc3[nH]2)cc1 [Example 30, 4-(5-Biphenyl-4-yl-6-chloro-1H-benzoimidazol-2-yloxy)-benzamide] was tested, and the Emax was > 80%.
With Cc1ccc(Oc2nc3cc(-c4ccc5nncn5c4)c(Cl)cc3[nH]2)cc1C(=O)O [Example 152, 5-(6-Chloro-5-[1,2,4]triazolo[4,3-a]pyridin-6-yl-1H-benzoimidazol-2-yloxy)-2-methyl-benzoic acid] the Emax was > 80%.
In the case of CCN1CCc2cc(-c3cc4nc(Oc5ccc(C)c(C(=O)O)c5)[nH]c4cc3Cl)ccc21 [Example 276, 5-[6-Chloro-5-(1-ethyl-2,3-dihydro-1H-indol-5-yl)-1H-benzoimidazol-2-yloxy]-2-methyl-benzoic acid], the Emax is reported as > 80%.
With CC(=O)Nc1cccc(Oc2nc3cc(-c4ccc(-c5ccccc5)cc4)c(Cl)cc3[nH]2)c1 [Example 3, N-[3-(5-Biphenyl-4-yl-6-chloro-1H-benzoimidazol-2-yloxy)-phenyl]-acetamide] the Emax was > 80%.
For O=C(O)c1cccc(Nc2nc3cc(C#Cc4ccccc4)c(Cl)cc3[nH]2)c1 [Example 139, 3-(6-Chloro-5-phenylethynyl-1H-benzoimidazol-2-ylamino)-benzoic acid], the Emax was > 80%.
For Cc1ccc(Oc2nc3cc(-c4ccc5[nH]cnc5c4)c(Cl)cc3[nH]2)cc1C(=O)O [Example 140, 2-(3-Carboxy-4-methyl-phenoxy)-6-chloro-1H,1′H-[5,5′]bibenzoimidazolyl-3-ium; chloride], the Emax was > 80%.
Cc1ccc(Oc2nc3cc(C#Cc4ccc(C(=O)O)cc4)c(Cl)cc3[nH]2)cc1C(=O)O [Example 181, 5-[5-(4-Carboxy-phenylethynyl)-6-chloro-1H-benzoimidazol-2-yloxy]-2-methyl-benzoic acid] was tested, and the Emax was > 80%.
In the case of O=C(O)c1ccc(Cl)c(Oc2nc3cc(-c4ccc(-c5ccccc5)cc4)c(Cl)cc3[nH]2)c1 [Example 210, 3-(5-Biphenyl-4-yl-6-chloro-1H-benzoimidazol-2-yloxy)-4-chloro-benzoic acid], the Emax is reported as > 80%.
Cc1ccc(Oc2nc3cc(-c4ccc(-c5ccc(=O)n(C(F)F)c5)cc4)c(Cl)cc3[nH]2)cc1C(=O)O [Example 162, 5-{6-Chloro-5-[4-(1-difluoromethyl-6-oxo-1,6-dihydro-pyridin-3-yl)-phenyl]1H-benzoimidazol-2-yloxy}-2-methyl-benzoic acid] was tested, and the Emax was > 80%.
In the case of Cc1ccc(Oc2nc3cc(-c4ccc5c(C)noc5c4)c(Cl)cc3[nH]2)cc1C(=O)O [Example 265, 5-[6-chloro-5-(3-methyl-benzo[d]isoxazol-6-yl)-1H-benzoimidazol-2-yloxy]-2-methyl-benzoic acid], the Emax is reported as > 80%.
With CC(=O)c1ccc(-c2cc3nc(Oc4ccc(C)c(C(=O)O)c4)[nH]c3cc2Cl)cc1 [Example 157, 5-{5-(4-Acetyl-phenyl)-6-chloro-1H-benzoimidazol-2-yloxy]-2-methyl-benzoic acid] the Emax was > 80%.
For Cc1ccc(Oc2nc3cc(-c4ccc5c(cnn5C)c4)c(Cl)cc3[nH]2)cc1C(=O)O [Example 142, 5-[6-Chloro-5-(1-methyl-1H-indazol-5-yl)-1H-benzoimidazol-2-yloxy]-2-methyl-benzoic acid], the Emax was > 80%.
With Cc1ccc(Oc2nc3cc(C#Cc4cccnc4)c(Cl)cc3[nH]2)cc1C(=O)O [Example 131, 5-(6-Chloro-5-pyridin-3-ylethynyl-1H-benzoimidazol-2-yloxy)-2-methyl-benzoic acid] the Emax was > 80%.
In the case of O=C(O)Cc1cc(O)cc(Oc2nc3cc(-c4ccc(-c5ccccc5)cc4)c(Cl)cc3[nH]2)c1 [Example 21, [3-(5-Biphenyl-4-yl-6-chloro-1H-benzoimidazol-2-yloxy)-5-hydroxy-phenyl]-acetic acid], the Emax is reported as > 80%.
COc1cccc(C#Cc2cc3nc(Oc4ccc(C)c(C(=O)O)c4)[nH]c3cc2Cl)c1 [Example 108, 5-[6-Chloro-5-(3-methoxy-phenylethynyl)-1H-benzoimidazol-2-yloxy]-2-methyl-benzoic acid] was tested, and the Emax was > 80%.
In the case of Cc1ccc(Oc2nc3cc(-c4ccc(-c5cccnc5)cc4)c(Cl)cc3[nH]2)cc1C(=O)O [Example 169, 5-[6-Chloro-5-(4-pyridin-3-yl-phenyl)-1H-benzoimidazol-2-yloxy]-2-methyl-benzoic acid], the Emax is reported as > 80%.
COC(=O)c1c(C)cc(Oc2nc3cc(-c4ccc(-c5ccccc5)cc4)c(Cl)cc3[nH]2)cc1C(=O)O [Example 12, 5-(5-Biphenyl-4-yl-6-chloro-1H-benzoimidazol-2-yloxy)-3-methyl-phthalic acid 2-methyl ester] was tested, and the Emax was > 80%.
O=C(O)Cc1ccc(Oc2nc3cc(-c4ccc(-c5ccccc5)cc4)c(Cl)cc3[nH]2)cc1 [Example 26, [4-(5-Biphenyl-4-yl-6-chloro-1H-benzoimidazol-2-yloxy)-phenyl]-acetic acid] was tested, and the Emax was > 80%.
With Cc1ccc(Oc2nc3cc(-c4ccc(CO)cc4)c(Cl)cc3[nH]2)cc1C(=O)O [Example 330, 2-(3-carboxy-4-methylphenoxy)-6-chloro-5-[4-(hydroxymethyl)phenyl]-1H-3,1-benzimidazol-3-ium trifluoroacetate] the Emax was > 80%.

Same assay, conditions: recombinant human AMPK complex 1 (α1β1γ1); read-out: EC50
Cc1ccc(Oc2nc3cc(-c4ccc(C5CC5)cc4)c(Cl)cc3[nH]2)cc1C(=O)O [Example 230, 5-{[6-chloro-5-(4-cyclopropylphenyl)-1H-benzimidazol-2-yl]oxy}-2-methylbenzoic acid] was tested, and the EC50 was 9 nM.
Compound Cc1ccc(Oc2nc3c(F)c(-c4ccc5c(ccn5C)c4)c(F)cc3[nH]2)cc1C(=O)O [Example 228, 5-[4,6-Difluoro-5-(1-methyl-1H-indol-5-yl)-1H-benzoimidazol-2-yloxy]-2-methyl-benzoic acid] has an EC50 of 2 nM.
